According to US20150290192A1, “INHIBITORS OF BRUTON'S TYROSINE KINASE” (HOFFMANN-LA ROCHE INC., priority 2012, published 2015):
Marks after values point to notes of the source that are not given here.

What was measured:
[1] = Pharmacokinetics in cynomolgus monkey; assay type: in vivo; details: Cyno
[2] = system: mice, poly I:C-induced airway neutrophilia; test: Poly I:C induced steroid-resistant airway inflammation (neutrophilia); assay type: in vivo, mouse; details: for % reduction in airway neutrophilia: Inhaled
Protocol: Compound 1's effects on airway inflammation induced by a synthetic form of double-stranded RNA, polyinosine-polycytidylic acid (Poly I:C) were assessed. […] To perform this experiment, mice (male; BALB/c; 7-9 weeks of age) were anesthetized with isoflurane and intranasally (i.n.) administered saline or poly I:C ([…]) and airway inflammation was evaluated 24 hours later as previously described [Harris et al., 2012, Mucosal Immunology]. Compound 1 inhibited poly I:C-induced airway neutrophilia in a dose-dependent (Table 6). These reductions in neutrophils were consistent with reductions in the levels of neutrophil chemoattractants in the lavage fluid (Table 4).

Pharmacokinetics in dog = assay type: in vivo
Bruton's Tyrosine Kinase = Bruton's Tyrosine Kinase (Homo sapiens, UniProt Q06187); test: Bruton's Tyrosine Kinase (BTK) inhibition TR-FRET competition assay; assay type: binding
Protocol: This BTK competition assay measures compound potency (IC50) for the inactivated state of Bruton's Tyrosine Kinase using FRET (Firster/Fluorescence Resonance Energy Transfer) technology. The BTK-Eu complex was incubated on ice one hour prior to use at a starting concentration of 50 nM BTK-Bioease™: 10 nM Eu-streptavidin (Perkin-Elmer Catalog#AD0062). The assay buffer consisted of 20 mM HEPES (pH 7.15), 0.1 mM DTT, 10 mM MgCl2, 0.5 mg/ml BSA with 3% Kinase Stabilizer (Fremont Biosolutions, Catalog #STB-K02). After 1 h, the reaction mixture from above was diluted 10 fold in assay buffer to make 5 nM BTK: InM Eu-Streptavidin complex (donor fluorophore). 18 l of a mixture of 0.11 nM BTK-Eu and 0.11 nM Kinase Tracer 178 (Invitrogen, Catalog #PV5593,) with BTK-Eu alone as no negative control, was then dispensed into 384-well flat bottom plates (Greiner, 784076). Compounds to be tested in assay were prepared as 10× concentrations and serial dilution in half-log increments was performed in DMSO so as to generate 10 point curves. To initiate the FRET reaction, compounds prepared as 10× stock in DMSO was added to the plates and the plates were incubated 18-24 h at 14° C.
After the incubation the plates were read on a BMG Pherastar Fluorescent plate reader (or equivalent) and used to measure the emission energy from the europium donor fluorophore (620 nm emission) and the FRET (665 nm emission). The negative control well values were averaged to obtain the mean minimum. The positive “no inhibitor” control wells were averaged to obtain the mean maximum. Percent of maximal FRET was calculated using following equation:
% max FRET=100×[(FSRcmpd−FSRmean min)/(FSRmean max−FSRmean min)]
where FSR=FRET Signal ratio. % Max FRET curves were plotted in Activity Base (Excel) and the IC50(%), hill slope, z′ and % CV were determined. The mean IC50 and standard deviation will be derived from duplicate curves (singlet inhibition curves from two independent dilutions) using Microsoft Excel.

Btk kinase = Btk kinase (Homo sapiens, UniProt Q06187); test: Btk Biacore binding assay
Protocol: Analyses were performed on a Biacore T-100. Btk kinase was avi-tagged and co-expressed in baculovirus with biotin ligase to generate single site biotinylated Btk (Avidity, LLC). Biotinylated target was captured on Biacore streptavidin sensor chips (Series S Sensor Chip SA) at densities of ˜10000 resonance units (1 ru˜1 pg protein/mm2). […] Compounds were injected for 100 seconds association time and dissociation was followed for 20 min.

Pharmacokinetics in rat = assay type: in vivo

Btk kinase, sequence (Q06187 whole entry): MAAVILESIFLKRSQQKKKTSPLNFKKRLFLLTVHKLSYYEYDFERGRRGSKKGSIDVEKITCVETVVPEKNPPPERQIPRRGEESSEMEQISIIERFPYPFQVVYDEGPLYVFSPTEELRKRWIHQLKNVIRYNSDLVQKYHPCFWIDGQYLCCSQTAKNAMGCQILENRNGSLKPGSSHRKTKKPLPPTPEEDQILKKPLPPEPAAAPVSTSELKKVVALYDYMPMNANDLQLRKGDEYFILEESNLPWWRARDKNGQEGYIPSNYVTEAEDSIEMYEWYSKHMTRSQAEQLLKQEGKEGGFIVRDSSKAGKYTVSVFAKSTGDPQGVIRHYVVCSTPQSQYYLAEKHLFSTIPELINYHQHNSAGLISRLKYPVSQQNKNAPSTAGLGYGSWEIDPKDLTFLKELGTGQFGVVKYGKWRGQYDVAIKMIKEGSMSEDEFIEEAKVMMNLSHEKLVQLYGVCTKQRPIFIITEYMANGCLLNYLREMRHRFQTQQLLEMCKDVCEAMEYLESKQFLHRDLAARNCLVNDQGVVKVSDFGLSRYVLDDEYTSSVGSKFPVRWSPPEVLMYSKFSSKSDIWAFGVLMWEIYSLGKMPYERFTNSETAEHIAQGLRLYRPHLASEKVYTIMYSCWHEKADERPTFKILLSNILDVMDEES
Bruton's Tyrosine Kinase, sequence (Q06187 whole entry): as above

## CN1CCC(c2ccc(Nc3cc(-c4ccnc(-n5ncc6cc(C(C)(C)C)cc(F)c6c5=O)c4CO)nn(C)c3=O)nc2)CC1 [Compound 1, 6-tert-Butyl-8-fluoro-2-{3-hydroxymethyl-4-[1-methyl-5-(1′-methyl-1′,2′,3′,4′,5′,6′-hexahydro-[3,4′]bipyridinyl-6-ylamino)-6-oxo-1,6-dihydro-pyridazin-3-yl]-pyridin-2-yl}-2H-phthalazin-1-one]
[1]; 0.3 mg/kg (iv)
  CL: high
[1]; 0.3 (iv), 0.9 (po) mg/kg
  Oral Bioavailability: low
[1]; cynomolgus monkey, plasma, 0.9 mg/kg, 0.3 (iv), 0.9 (po) mg/kg
  bioavailability: 8%
[1]; cynomolgus monkey, plasma, 0.3 mg/kg (iv)
  clearance: 38.9 mL/min/kg
[2]; delivered dose 0.09 mg/kg, deposited dose .003 mg/kg, mPolyIC-3-12
  % reduction in airway neutrophilia: 17%
[2]; delivered dose 0.27 mg/kg, deposited dose .010 mg/kg, mPolyIC-3-12
  % reduction in airway neutrophilia: 22%
[2]; delivered dose 0.81 mg/kg, deposited dose .030 mg/kg, mPolyIC-3-12
  % reduction in airway neutrophilia: 67* %
[2]; delivered dose 8.6 mg/kg, deposited dose 0.3 mg/kg, mPolyIC-5-12
  % reduction in airway neutrophilia: 83* %
[2]; dose-dependent
  poly I:C-induced airway neutrophilia: inhibited
[2]; mouse, in vivo
  levels of neutrophil chemoattractants in the lavage fluid: reductions
Pharmacokinetics in dog; 1.0 mg/kg (iv)
  CL: high
Pharmacokinetics in dog; 1.0 (iv), 1.0 (po) mg/kg
  Oral Bioavailability: low
Pharmacokinetics in dog; plasma, 1.0 mg/kg (iv)
  clearance: 28.3 mL/min/kg
Pharmacokinetics in dog; plasma, 1 mg/kg, 1.0 (iv), 1.0 (po) mg/kg
  bioavailability: 1.5%
Bruton's Tyrosine Kinase
  Btk inhibitor potency (FRET): very potent
Bruton's Tyrosine Kinase; inactivated state of BTK, 18-24 h at 14° C.
  IC50: 0.4 nM
Btk kinase
  Kd: 0.408 nM
Btk kinase; Biacore
  off rate: very slow
Btk kinase; read-out: Biacore Ka
  kon: 886000 M⁻¹ s⁻¹
Pharmacokinetics in rat; 1.0 mg/kg (iv)
  CL: high
Pharmacokinetics in rat; 1.0 (iv), 2.0 (po) mg/kg
  Oral Bioavailability: low
Pharmacokinetics in rat; plasma, 1.0 mg/kg (iv)
  clearance: 75.8 mL/min/kg
Pharmacokinetics in rat; plasma, 2 mg/kg, 1.0 (iv), 2.0 (po) mg/kg
  bioavailability: 2%
